Data reported in US20030083375A1, “11Beta-fluoro 15beta-hydroxy PGF2alpha analogs as FP receptor antagonists” (priority 1997, published 2003).
Read-outs that look alike come from different tables or passages of the source. Values belong to the compound of their own block, whether it stands above or below them.

Legend:
FP receptor [1] = biological target: T1, FP receptor (Rattus norvegicus, UniProt P43118); assay: Agonist stimulation of [3H]IPs production in A7r5 cells; type: cell-based
T1 construct: Two cell lines containing the FP receptor have been extensively characterized by this method; host or cells: A7r5 rat thoracic aorta smooth muscle cells
T1 sequence (P43118 whole entry): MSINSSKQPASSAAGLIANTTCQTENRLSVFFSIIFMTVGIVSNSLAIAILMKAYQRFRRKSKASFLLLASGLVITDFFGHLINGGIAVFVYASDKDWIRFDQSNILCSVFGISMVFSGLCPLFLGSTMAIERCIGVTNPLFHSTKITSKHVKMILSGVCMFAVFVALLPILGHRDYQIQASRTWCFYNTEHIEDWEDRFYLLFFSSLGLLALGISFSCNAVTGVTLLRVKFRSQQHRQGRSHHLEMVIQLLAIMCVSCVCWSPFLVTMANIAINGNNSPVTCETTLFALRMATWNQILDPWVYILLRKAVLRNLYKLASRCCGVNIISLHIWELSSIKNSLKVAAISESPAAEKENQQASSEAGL
Protocol: (§1) Confluent monolayer cultures of cells (in a standard 24-well tissue culture plate) expressing the FP receptor are exposed to [^3H]-myo-inositol (1.5 μCi in a volume of 0.5 ml DMEM culture medium supplemented with 2 mM L-glutamine and 10 μg/ml gentamicin sulfate) in the absence of serum, which causes net incorporation of the radioisotope into the phosphotidylinositol membrane lipids. After 24-32 hrs, the medium with the radioisotope is removed and the cells are rinsed once with DMEM/F-12 medium containing 10 mM LiCl (assay medium). Then 0.5 ml of assay medium is added to each well of cells, followed by addition of varying concentrations of an FP receptor agonist (or other test compound). Cells are exposed to the test agent for 30-120 min in a humidified incubator (95% air/5% CO2), maintained at 37° C. Then the assay medium is removed and 1 ml of 0.1 M formic acid is added to the cell monolayer to inactivate the phospholipase C release the radiolabelled products into the assay medium. The presence of LiCl during the agonist stimulation period inhibits phosphatases and permits the accumulation of radiolabelled inositol phosphates (IPs) which is measured by ion exchange chromatography.
The agonist-dependent production of IPs, which reflects the degree of receptor activation, is quantitatively measured for each well of cells in the 24-well plate by separating the negatively charged radiolabelled IPs from other minor radiolabelled species and free [^3H]-myo-inositol by anion exchange chromatography. […] These samples, i.e., the radiolabelled IPs formed by the cells in response to stimulation by an FP prostaglandin receptor agonist or other test agent, is then measured by scintillation spectrometry on a beta-counter.
The dependence of the level of the [^3H]IPs production on agonist concentration is analyzed by standard pharmacological methods to determine the potency (EC50 value) and efficacy (maximum response; Emax) of the FP receptor agonist relative to a standard FP receptor agonist such as fluprostenol. […]

FP receptor [2] = biological target: T1, FP receptor; assay: Antagonism of fluprostenol-stimulated [3H]IPs production in A7r5 cells; type: cell-based
Protocol: as §1
The agonist-dependent production of IPs, which reflects the degree of receptor activation, is quantitatively measured for each well of cells in the 24-well plate by separating the negatively charged radiolabelled IPs from other minor radiolabelled species and free [^3H]-myo-inositol by anion exchange chromatography. This is accomplished by adding 0.9 ml of the cell lysate obtained as described above to a column packed with 1 ml of AG 1-X8 anion exchange resin in the formate form. The elution and separation of the radiolabelled IPs from the column consists of sequential additions to the column of: 1) 10 ml of water; 2) 8 ml of 50 mM ammonium formate; and 3) 4 ml of 1.2 M ammonium formate solution containing 0.1 M formic acid. The first two washes are discarded, and the third is collected in a scintillation vial, to which is added 15 ml of a water-accepting scintillation fluid. These samples, i.e., the radiolabelled IPs formed by the cells in response to stimulation by an FP prostaglandin receptor agonist or other test agent, is then measured by scintillation spectrometry on a beta-counter.
The dependence of the level of the [^3H]IPs production on agonist concentration is analyzed by standard pharmacological methods to determine the potency (EC50 value) and efficacy (maximum response; Emax) of the FP receptor agonist relative to a standard FP receptor agonist such as fluprostenol. […] The agonist stimulation is then continued for the standard time (30-120 min), after which the procedure for quenching the reaction, separating the [^3H]IPs, and anion exchange chromatography is identical to the procedure described above. A compound is considered to be an antagonist in this protocol if it inhibits the agonist-stimulated [^3H]IPs production relative to the production measured in the control experiment (performed in parallel), in which the solvent is substituted for the antagonist.
Two different antagonist protocols are employed: 1) the antagonist concentration is varied while holding the agonist concentration fixed at a concentration approximately 10 times the agonist EC50 value and 2) the antagonist concentration is fixed in a given experiment, with the agonist concentration varied, and several such experiments, each with a different, fixed antagonist concentration, are performed. […] Overall, the Ki and Kb values are synonymous and represent the antagonist potency of the antagonist at equilibrium.

human ocular FP receptor = biological target: T2, human ocular FP receptor (Homo sapiens, UniProt P43088); assay: Antagonism of fluprostenol-induced [3H]IPs production in HEK-293 cells expressing recombinant human ocular FP receptor; type: cell-based
T2 construct: expressed in transfected cells; host or cells: HEK-293 (human embryonic kidney)
T2 sequence (P43088 whole entry): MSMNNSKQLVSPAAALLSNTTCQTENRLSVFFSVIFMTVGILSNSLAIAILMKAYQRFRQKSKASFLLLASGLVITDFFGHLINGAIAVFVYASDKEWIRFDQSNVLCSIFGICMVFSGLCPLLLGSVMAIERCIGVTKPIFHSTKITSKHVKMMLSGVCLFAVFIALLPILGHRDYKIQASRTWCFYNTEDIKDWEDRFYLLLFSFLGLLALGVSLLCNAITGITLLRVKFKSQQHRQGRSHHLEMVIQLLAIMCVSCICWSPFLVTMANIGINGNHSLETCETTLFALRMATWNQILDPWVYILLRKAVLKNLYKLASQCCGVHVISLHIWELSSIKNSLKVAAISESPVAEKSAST
Protocol: as §1, with “Then the assay medium is removed and 1 ml of 0.1 M formic acid is added to the cell monolayer to inactivate the phospholipase C release the radiolabelled products into the assay medium.” left out
The agonist-dependent production of IPs, which reflects the degree of receptor activation, is quantitatively measured for each well of cells in the 24-well plate by separating the negatively charged radiolabelled IPs from other minor radiolabelled species and free [^3H]-myo-inositol by anion exchange chromatography. […]

[3] = biological target: FP prostaglandin receptor (Homo sapiens, UniProt P43088); assay: Selectivity for the FP prostaglandin receptor compared to other classes of prostaglandin receptors
Chain of FP prostaglandin receptor (P43088 whole entry): as above

Structure (SMILES): CCCCC[C@H](O)/C=C/[C@@H]1[C@@H](C/C=C\CCCC(=O)N(C)C)[C@@H](O)C[C@H]1O [PGF2α dimethyl amide, reference compound]
Kb, mol/L (potency as antagonist of the FP receptor) (FP receptor [2]; Schild analysis): Inactive

Structure (SMILES): CCCCC[C@H](O)/C=C/[C@@H]1[C@@H](C/C=C\CCCCN(C)C)[C@@H](O)C[C@H]1O [PGF2α dimethyl amine, reference compound]
Kb, mol/L (potency as antagonist of the FP receptor) (FP receptor [2]; Schild analysis): Inactive

Structure (SMILES): CCCCNC(=O)NS(=O)(=O)c1ccc(C)cc1 [Tolbutamide, reference compound]
Kb, mol/L (potency as antagonist of the FP receptor) (FP receptor [2]; Schild analysis): Inactive

The next lines start with the values.

Agonist classification (maximum effect relative to full agonists) (FP receptor [1]): full agonist
Structure (SMILES): O=C(O)CCC/C=C\C[C@@H]1[C@@H](/C=C/[C@@H](O)COc2cccc(C(F)(F)F)c2)[C@H](O)C[C@@H]1O (racemic) [fluprostenol]

Kb (FP receptor [2]; Schild analysis, read-out: Kb, mol/L (potency as antagonist of the FP receptor)): 250 nM
Ki (FP receptor [2]; fixed fluprostenol concentration about 10 times the agonist EC50, read-out: Ki (method of FIG. 2, antagonist concentration varied)): 426 ± 63 nM
Kb (FP receptor [2]; fluprostenol agonist varied, fixed antagonist concentrations, n=4 experiments, read-out: Kb (Schild analysis)): 285 ± 97 nM
Fold higher potency as FP receptor antagonist than phloretin (FP receptor [2]; from Table 1): > 10 fold
Type of antagonism (FP receptor [2]; shift of fluprostenol dose-response curves, maximal effect unaltered): competitive antagonist
Agonist classification (maximum effect relative to full agonists) (FP receptor [1]): partial agonist
Antagonism of fluprostenol-induced [3H]IPs production (human ocular FP receptor): behaved as an antagonist
Selectivity for FP prostaglandin receptor versus other prostaglandin receptor classes [3]: relatively good selectivity
Structure (SMILES): O=C(O)CCC/C=C\C[C@@H]1[C@@H](/C=C/[C@H](O)C2Cc3ccccc3C2)[C@@H](F)C[C@@H]1O [Compound III, (5Z,13E)-(9S,11S,15R)-9,15-Dihydroxy-11-fluoro-15-(2-indanyl)-16,17,18,19,20-pentanor-5,13-prostadienoic acid]

Agonist classification (maximum effect relative to full agonists) (FP receptor [1]): full agonist
Structure (SMILES): O=C(O)CCC/C=C\CC1C(O)CC(O)C1/C=C/C(O)COc1cccc(Cl)c1 (stereo not shown) [cloprostenol]
